Measurements from patent US20060069132A1, “Azolecarboxamide herbicides” (priority 2004, published 2006).

Legend:
morningglory = assay: Test A pre-/postemergence herbicide test; format: in vivo, Ipomoea spp.
Summary of the method: (§1)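 Sandy loam soil given preemergence directed spray; plants at 2 to 10 cm, one- to two-leaf stage, sprayed to runoff postemergence, compounds in non-phytotoxic solvent with surfactant. Injury rated visually versus untreated controls after about ten greenhouse days, 0 (no effect) to 100 (complete control); dash means not tested.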

velvetleaf = assay: Test A pre-/postemergence herbicide test; format: in vivo, Abutilon theophrasti
Summary of the method: as §1

bermudagrass = assay: Test C pre-/postemergence herbicide test; format: in vivo, Cynodon dactylon
Summary of the method: (§2)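 Preemergence: seeds planted and treated with compound in non-phytotoxic solvent with surfactant; postemergence: plants at 2 to 18 cm (1- to 4-leaf stage) sprayed likewise. Kept in greenhouse 12 to 14 days, then visually rated against controls, 0 (no effect) to 100 (complete control).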

Surinam grass = assay: Test C pre-/postemergence herbicide test; format: in vivo, Urochloa decumbens; settings: for Surinam Grass plant response rating: 500 g ai/ha
Summary of the method: as §2

cocklebur = assay: Test C pre-/postemergence herbicide test; format: in vivo, Xanthium strumarium; settings: for Cocklebur plant response rating: 500 g ai/ha
Summary of the method: as §2

goosegrass = assay: Test C pre-/postemergence herbicide test; format: in vivo, Eleusine indica; settings: for Goosegrass plant response rating: 500 g ai/ha
Summary of the method: as §2

johnsongrass = assay: Test C pre-/postemergence herbicide test; format: in vivo, Sorghum halepense
Summary of the method: as §2

pigweed = assay: Test C pre-/postemergence herbicide test; format: in vivo, Amaranthus retroflexus; settings: for Pigweed plant response rating: 500 g ai/ha
Summary of the method: as §2

soybean = assay: Test C pre-/postemergence herbicide test; format: in vivo, Glycine max; settings: for Soybean plant response rating: 500 g ai/ha
Summary of the method: as §2

[1] = test system: smallflower umbrella sedge; assay: Test C flooded paddy test; format: in vivo, Cyperus difformis; settings: for Plant response rating, Sedge, Umbrella: 500 g ai/ha, visual rating after 12 to 14 days
ducksalad = assay: Test C flooded paddy test; format: in vivo, Heteranthera limosa; settings: for Plant response rating, Ducksalad: 500 g ai/ha, visual rating after 12 to 14 days
[2] = Postemergence, 500 g ai/ha, 0 to 100 scale, 0 no effect, 100 complete control
[3] = Postemergence, 2000 g ai/ha, 0 to 100 scale, 0 no effect, 100 complete control
[4] = Preemergence, 500 g ai/ha, visual rating, 0 to 100 scale (0 no effect, 100 complete control)
[5] = Preemergence, 2000 g ai/ha, visual rating, 0 to 100 scale (0 no effect, 100 complete control)
[6] = 31 g ai/ha, preemergence, scale 0 to 100
[7] = 125 g ai/ha, scale 0 (no effect) to 100 (complete control), visual, 12 to 14 days, preemergence
[8] = 250 g ai/ha, scale 0 to 100 (0 no effect, 100 complete control), visual, 12 to 14 days, preemergence
[9] = 62 g ai/ha, scale 0 to 100 (0 no effect, 100 complete control)
[10] = 125 g ai/ha, scale of 0 to 100, 0 is no effect, 100 is complete control
[11] = 250 g ai/ha, scale of 0 to 100, 0 is no effect, 100 is complete control
[12] = scale 0 to 100 (0 no effect, 100 complete control)
[13] = preemergence, 500 g ai/ha, visual injury, 0 to 100 scale (0 no effect, 100 complete control)
[14] = 125 g ai/ha, scale 0 to 100 (0 no effect, 100 complete control)
[15] = Preemergence, 500 g ai/ha, scale 0 to 100, 0 no effect, 100 complete control
[16] = postemergence, 125 g ai/ha, scale 0 to 100
[17] = postemergence, 62 g ai/ha, scale 0 to 100
[18] = Postemergence, 250 g ai/ha, scale 0 to 100, 0 no effect, 100 complete control
[19] = Preemergence, scale 0 to 100, 0 no effect, 100 complete control

CCOC(=O)c1cc(NC(=O)c2cc(C(C)(C)C)nn2CC)ccc1OCC [Compound 95]
Morningglory plant response rating (morningglory; [2]): 10 | Plant response rating, Morningglory (morningglory; [3]): 15 | Morningglory plant response rating (morningglory; [4]): 30 | Morningglory plant response rating (morningglory; Preemergence, 2000 g ai/ha, 0 to 100 scale, 0 no effect, 100 complete control): 55 | Velvetleaf plant response rating (velvetleaf; [2]): 45 | Plant response rating, Velvetleaf (velvetleaf; [3]): 50 | Velvetleaf plant response rating (velvetleaf; [4]): 50 | Velvetleaf plant response rating (velvetleaf; [5]): 80 | Plant response rating, Bermudagrass (bermudagrass; [6]): 10 | Plant response rating (0 = no effect, 100 = complete control), Bermudagrass (bermudagrass; 62 g ai/ha, preemergence): 70 | Plant response rating, Bermudagrass (bermudagrass; [7]): 100 | Plant response rating, Bermudagrass (bermudagrass; [8]): 100 | Plant response rating, Surinam Grass (Surinam grass; [6]): 0 | Plant response rating (0 = no effect, 100 = complete control), Surinam Grass (Surinam grass; 62 g ai/ha, preemergence): 0 | Plant response rating, Surinam Grass (Surinam grass; [7]): 10 | Plant response rating, Cocklebur (cocklebur; [6]): 0 | Plant response rating (0 = no effect, 100 = complete control), Cocklebur (cocklebur; 62 g ai/ha, preemergence): 0 | Plant response rating, Cocklebur (cocklebur; [7]): 5 | Plant response rating, Cocklebur (cocklebur; [8]): 10 | Plant response rating, Goosegrass (goosegrass; [6]): 0 | Plant response rating (0 = no effect, 100 = complete control), Goosegrass (goosegrass; 62 g ai/ha, preemergence): 0 | Plant response rating, Goosegrass (goosegrass; [7]): 50 | Plant response rating, Johnsongrass (johnsongrass; [6]): 0 | Plant response rating (0 = no effect, 100 = complete control), Johnsongrass (johnsongrass; 62 g ai/ha, preemergence): 0 | Plant response rating, Johnsongrass (johnsongrass; [7]): 40 | Plant response rating, Pigweed (pigweed; [6]): 100 | Plant response rating (0 = no effect, 100 = complete control), Pigweed (pigweed; 62 g ai/ha, preemergence): 100 | Plant response rating, Pigweed (pigweed; [7]): 100 | Plant response rating, Soybean (soybean; [6]): 0 | Plant response rating (0 = no effect, 100 = complete control), Soybean (soybean; 62 g ai/ha, preemergence): 0 | Plant response rating, Soybean (soybean; [7]): 0 | Sedge, Umbrella plant response rating [1, 9]: 85 | Sedge, Umbrella plant response rating [1, 10]: 90 | Sedge, Umbrella plant response rating [1, 11]: 95 | Plant response rating, Sedge, Umbrella [1, 12]: 95 | Ducksalad plant response rating (ducksalad; [9]): 10 | Ducksalad plant response rating (ducksalad; [10]): 25 | Ducksalad plant response rating (ducksalad; [11]): 75 | Plant response rating, Ducksalad (ducksalad; [12]): 90

CC(=O)c1cccc(NC(=O)c2cc(C(C)(C)C)nn2CCF)c1 [Compound 128]
Morningglory plant response rating (morningglory; [2]): 10 | Plant response rating, Morningglory (morningglory; [3]): 15 | Morningglory plant response rating (morningglory; [4]): 45 | Morningglory plant response rating (morningglory; [5]): 85 | Velvetleaf plant response rating (velvetleaf; [2]): 20 | Plant response rating, Velvetleaf (velvetleaf; [3]): 35 | Velvetleaf plant response rating (velvetleaf; [5]): 85 | Velvetleaf plant response rating (velvetleaf; [13]): 75 | Plant response rating, Bermudagrass (bermudagrass; 16 g ai/ha, scale 0 to 100, 0 no effect, 100 complete control, last section of Table C (species set of preemergence test)): 30 | Plant response rating, Bermudagrass (bermudagrass; 31 g ai/ha, scale 0 to 100, 0 no effect, 100 complete control, last section of Table C (species set of preemergence test)): 90 | Plant response rating (0 = no effect, 100 = complete control), Bermudagrass (bermudagrass; 62 g ai/ha, preemergence): 100 | Plant response rating, Bermudagrass (bermudagrass; [7]): 100 | Plant response rating (0 = no effect, 100 = complete control), Surinam Grass (Surinam grass; 62 g ai/ha, preemergence): 30 | Plant response rating, Surinam Grass (Surinam grass; [7]): 60 | Plant response rating (0 = no effect, 100 = complete control), Cocklebur (cocklebur; 62 g ai/ha, preemergence): 10 | Plant response rating, Cocklebur (cocklebur; [7]): 10 | Plant response rating (0 = no effect, 100 = complete control), Goosegrass (goosegrass; 62 g ai/ha, preemergence): 80 | Plant response rating, Goosegrass (goosegrass; [7]): 90 | Plant response rating (0 = no effect, 100 = complete control), Johnsongrass (johnsongrass; 62 g ai/ha, preemergence): 90 | Plant response rating, Johnsongrass (johnsongrass; [7]): 90 | Plant response rating, Pigweed (pigweed; [7]): 60 | Plant response rating (0 = no effect, 100 = complete control), Soybean (soybean; 62 g ai/ha, preemergence): 20 | Plant response rating, Soybean (soybean; [7]): 20 | Sedge, Umbrella plant response rating [1, 9]: 80 | Sedge, Umbrella plant response rating [1, 14]: 90 | Sedge, Umbrella plant response rating [1, 11]: 95 | Plant response rating, Sedge, Umbrella [1, 12]: 95 | Ducksalad plant response rating (ducksalad; [9]): 80 | Ducksalad plant response rating (ducksalad; [14]): 95 | Ducksalad plant response rating (ducksalad; [11]): 95 | Plant response rating, Ducksalad (ducksalad; [12]): 95

CCNC(=O)c1cccc(NC(=O)c2cc(C(C)(C)C)nn2CC)n1 [Compound 144]
Morningglory plant response rating (morningglory; [2]): 25 | Plant response rating, Morningglory (morningglory; [3]): 35 | Morningglory plant response rating (morningglory; [4]): 20 | Morningglory plant response rating (morningglory; [5]): 75 | Velvetleaf plant response rating (velvetleaf; [2]): 55 | Plant response rating, Velvetleaf (velvetleaf; [3]): 75 | Velvetleaf plant response rating (velvetleaf; [5]): 90 | Velvetleaf plant response rating (velvetleaf; [13]): 70 | Plant response rating (0 = no effect, 100 = complete control), Bermudagrass (bermudagrass; 62 g ai/ha, preemergence): 70 | Plant response rating, Bermudagrass (bermudagrass; [7]): 80 | Plant response rating, Bermudagrass (bermudagrass; [8]): 80 | Bermudagrass plant response rating (bermudagrass; [15]): 90 | Plant response rating, Bermudagrass (bermudagrass; [16]): 0 | Plant response rating, Bermudagrass (bermudagrass; [17]): 0 | Plant response rating (0 = no effect, 100 = complete control), Surinam Grass (Surinam grass; 62 g ai/ha, preemergence): 20 | Plant response rating, Surinam Grass (Surinam grass; [7]): 40 | Surinam Grass plant response rating (Surinam grass; Postemergence, scale 0 to 100): 40 | Plant response rating, Surinam Grass (Surinam grass; [18]): 40 | Surinam Grass plant response rating (Surinam grass; [19]): 70 | Plant response rating, Surinam Grass (Surinam grass; [16]): 0 | Plant response rating, Surinam Grass (Surinam grass; [17]): 0 | Plant response rating (0 = no effect, 100 = complete control), Cocklebur (cocklebur; 62 g ai/ha, preemergence): 0 | Plant response rating, Cocklebur (cocklebur; [7]): 0 | Plant response rating, Cocklebur (cocklebur; [8]): 0 | Cocklebur plant response rating (cocklebur; Postemergence, scale 0 to 100): 70 | Plant response rating, Cocklebur (cocklebur; [18]): 70 | Cocklebur plant response rating (cocklebur; [19]): 80 | Plant response rating, Cocklebur (cocklebur; [16]): 40 | Plant response rating, Cocklebur (cocklebur; [17]): 10 | Plant response rating (0 = no effect, 100 = complete control), Goosegrass (goosegrass; 62 g ai/ha, preemergence): 30 | Plant response rating, Goosegrass (goosegrass; [7]): 60 | Goosegrass plant response rating (goosegrass; Postemergence, scale 0 to 100): 20 | Plant response rating, Goosegrass (goosegrass; [18]): 10 | Goosegrass plant response rating (goosegrass; [19]): 80 | Plant response rating, Goosegrass (goosegrass; [16]): 5 | Plant response rating, Goosegrass (goosegrass; [17]): 5 | Plant response rating (0 = no effect, 100 = complete control), Johnsongrass (johnsongrass; 62 g ai/ha, preemergence): 0 | Plant response rating, Johnsongrass (johnsongrass; [7]): 0 | Plant response rating, Johnsongrass (johnsongrass; [18]): 10 | Johnsongrass plant response rating (johnsongrass; [15]): 90 | Plant response rating, Johnsongrass (johnsongrass; [16]): 0 | Plant response rating, Johnsongrass (johnsongrass; [17]): 0 | Plant response rating (0 = no effect, 100 = complete control), Pigweed (pigweed; 62 g ai/ha, preemergence): 90 | Plant response rating, Pigweed (pigweed; [7]): 90 | Pigweed plant response rating (pigweed; Postemergence, scale 0 to 100): 100 | Plant response rating, Pigweed (pigweed; [18]): 100 | Pigweed plant response rating (pigweed; [19]): 100 | Plant response rating, Pigweed (pigweed; [16]): 100 | Plant response rating, Pigweed (pigweed; [17]): 100 | Plant response rating (0 = no effect, 100 = complete control), Soybean (soybean; 62 g ai/ha, preemergence): 0 | Plant response rating, Soybean (soybean; [7]): 40 | Soybean plant response rating (soybean; Postemergence, scale 0 to 100): 90 | Plant response rating, Soybean (soybean; [18]): 90 | Soybean plant response rating (soybean; [19]): 80 | Plant response rating, Soybean (soybean; [16]): 85 | Plant response rating, Soybean (soybean; [17]): 70 | Sedge, Umbrella plant response rating [1, 9]: 80 | Sedge, Umbrella plant response rating [1, 14]: 80 | Sedge, Umbrella plant response rating [1, 11]: 80 | Plant response rating, Sedge, Umbrella [1, 12]: 90 | Ducksalad plant response rating (ducksalad; [9]): 20 | Ducksalad plant response rating (ducksalad; [14]): 50 | Ducksalad plant response rating (ducksalad; [11]): 70 | Plant response rating, Ducksalad (ducksalad; [12]): 80
